Consider six compounds from ChEMBL document CHEMBL3739409, “Bioactive ent-Pimarane and ent-Abietane Diterpenoids from the Whole Plants of Chloranthus henryi” (J Nat Prod, 2015).

For experiment [1], the system named is Candida albicans. Kind of experiment: Antifungal activity against Candida albicans SC5314 by broth microdilution method. Type of experiment: functional. A general note: Dilution methods test growth across graded concentrations, often in twofold steps.
Experiment [2] has as its system Candida albicans. Kind of experiment: Antifungal activity against Candida albicans SC5314 assessed as inhibition of yeast to hyphae conversion after 4 hrs by microscopic analysis. Conditions: SC5314, 4 h. Type of experiment: functional, organism-based.

Converted amounts (≈) assume the structure as drawn.

For the compound `CC(C)c1ccc2c(c1)C(=O)CC1C(C)(C)[C@@H](O)CC[C@]21C` (stereo partly drawn), in the experiment on Candida albicans [1], the MIC50 is 427 µM (≈ 128 µg/mL). For the same compound, in the experiment with Candida albicans [2], the IC50 was determined as 97.3 µM.

For the compound `CO[C@@]1(C(C)C)C=C2C(=O)C[C@@H]3C(C)(C)[C@H](O)CC[C@@]3(C)[C@@H]2C[C@H]1O`, the MIC50 against Candida albicans [1] worked out at 731 µM (≈ 256 µg/mL). In the experiment on Candida albicans [2], the IC50 stood at 334 µM.

As for `C=C[C@]1(C)C=C2[C@@H](CC1)[C@]1(C)CC[C@@H](O)C(C)(C)[C@H]1C[C@@H]2O`, in the experiment with Candida albicans [2], the IC50 worked out at 399 µM.

Consider `CC(C)c1ccc2c(c1)[C@H](O)CC1C(C)(C)[C@@H](O)CC[C@]21C` (stereo partly drawn), for which the IC50 with Candida albicans [2] was 739 µM.

With `OC(Cn1cncn1)(Cn1cncn1)c1ccc(F)cc1F` [FLUCONAZOLE], the MIC50 against Candida albicans [1] was determined as 1.6 µM (≈ 0.49 µg/mL).

`C=CCc1ccc(O)c(-c2cc(CC=C)ccc2O)c1` [MAGNOLOL]: the IC50 in the experiment on Candida albicans [2] was found to be 7.5 µM.

In general, MIC50 refers to the lowest concentration that inhibits either 50% of growth or 50% of the strains tested, depending on the study. By IC50 is commonly meant the concentration needed to halve the response being measured.
